Assay in all cases: MIC by series dilution on Iso-Sensitest agar
One test deals with Enterocococus faecalis. The format is cell-based, Enterococcus faecalis. As to conditions: 37° C., about 20 hours, 10^4 colony-forming particles per spot; for MIC: Enterococcus faecalis, 20 h. As for the experimental part:
(§1) The minimum inhibitory concentrations (MIC) were determined by series dilution methods on Iso-Sensitest agar (Oxoid). A series of agar plates each containing active compound concentrations decreasing by twofold dilution each time were prepared for each test substance. The agar plates were inoculated with a Multipoint inoculator (Denley). Overnight cultures of the pathogens, which were first diluted so that each inoculum spot contained about 10^4 colony-forming particles, were used for the inoculation. The inoculated agar plates were incubated at 37° C. and the germ growth was read off after about 20 hours. The MIC value (μg/ml) indicates the lowest active compound concentration at which no growth was to be detected with the naked eye.
(§2) The MIC values of some of the compounds according to the invention are shown in the following table in comparison with 7-(4-amino-1,3-dihydro-isoindol-2-yl)-1-cyclopropyl-6,8-difluoro-1,4-dihydro-4-oxo-3-quinolinecarboxylic acid (EP 343,560, Example 2).

Another test relates to Providencia spp. The format is cell-based. As to conditions: strain 12012, 37° C., about 20 hours, 10^4 colony-forming particles per spot; for MIC: Providencia, 20 h. As for the experimental part:
as §1, §2

The next test concerns Morganella morg. The format is cell-based. The following applies: strain 932, 37° C., about 20 hours, 10^4 colony-forming particles per spot; for MIC: Morganella, 20 h. The protocol: as §1, §2
For the next test, the system named is Klebsiella sp. The format is cell-based. As to conditions: strain 8085, 37° C., about 20 hours, 10^4 colony-forming particles per spot; for MIC: Klebsiella. The protocol:
as §1, §2

The next test concerns Staphyloccus aureus. It counts as cell-based, Staphylococcus aureus. The following applies: 37° C., about 20 hours, 10^4 colony-forming particles per spot; for MIC: Staphylococcus aureus, 20 h. The protocol: as §1, §2
For another test, the system named is E. coli. It counts as cell-based, Escherichia coli. As to conditions: 37° C., about 20 hours, 10^4 colony-forming particles per spot; for MIC: Escherichia coli, 20 h. The protocol: as §1, §2
For a further test, the system named is Pseudomonas aeruginasa. It counts as cell-based, Pseudomonas aeruginosa. The following applies: strain Walter, 37° C., about 20 hours, 10^4 colony-forming particles per spot; for MIC: Pseudomonas, 20 h. The protocol:
as §1, §2

In brackets after ≈: the same amount, converted by molar mass.

As for `CNC1C=CCC2CN(c3c(F)cc4c(=O)c(C(=O)O)cn(C5CC5)c4c3Cl)CC21` (centres unmarked) [9 B], the MIC values was 0,02 μg/ml against Enterocococus faecalis (strain 9790); 0,03 μg/ml against Enterocococus faecalis (strain 27101); 0,06 μg/ml in the test with Providencia spp.; 0,06 μg/ml against Morganella morg.; 0,03 μg/ml against Klebsiella sp.; 0,03 μg/ml against Staphyloccus aureus (strain 133). In addition, the MIC values is 0,03 μg/ml in the test on Staphyloccus aureus (strain 1756), 0,5 μg/ml with E. coli (strain 455/7), 0,02 μg/ml against E. coli (strain Neumann) and 1 µg/mL (≈ 2.32 µM) in the test with Pseudomonas aeruginasa.

In the case of `CNC1C=CCC2CN(c3nc4c(cc3F)c(=O)c(C(=O)O)cn4-c3ccc(F)cc3F)CC21` (centres unmarked) [11 B], the MIC in the test on Enterocococus faecalis (strain 9790) came to 0.25 µg/mL (≈ 0.531 µM); against Enterocococus faecalis (strain 27101), 0.25 µg/mL (≈ 0.531 µM); with Providencia spp., 0.5 µg/mL (≈ 1.06 µM); in the test with Morganella morg. it was 0.5 µg/mL (≈ 1.06 µM); in the test with Klebsiella sp., 0.5 µg/mL (≈ 1.06 µM); in the test on Staphyloccus aureus (strain 133), 0.06 µg/mL (≈ 0.128 µM). Further, the MIC against Staphyloccus aureus (strain 1756) worked out at 0.06 µg/mL (≈ 0.128 µM); against E. coli (strain 455/7), 16 µg/mL (≈ 34 µM); with E. coli (strain Neumann), 0.25 µg/mL (≈ 0.531 µM); against Pseudomonas aeruginasa, 8 µg/mL (≈ 17 µM).

On to `CNC1C=CCC2CN(c3c(F)cc4c(=O)c(C(=O)O)cn(C5CC5)c4c3F)CC21` (centres unmarked) [Example 1, 1-cyclopropyl-6,8-difluoro-1,4-dihydro-7-(4-methylamino-1,3,3a,4,7,7a-hexahydro-isoindol-2-yl)-4-oxo-3-quinolinecarboxylic acid], for which the minimal inhibitory concentration (MIC) is 0.03 µg/mL (≈ 0.0722 µM) in the test with Enterocococus faecalis (strain 9790); 0.03 µg/mL (≈ 0.0722 µM) against Enterocococus faecalis (strain 27101); 0.06 µg/mL (≈ 0.144 µM) with Providencia spp.; 0.06 µg/mL (≈ 0.144 µM) with Morganella morg.; 0.06 µg/mL (≈ 0.144 µM) against Klebsiella sp.; 0.02 µg/mL (≈ 0.0481 µM) in the test with Staphyloccus aureus (strain 133). Also, the MIC in the test with Staphyloccus aureus (strain 1756) turned out to be 0.02 µg/mL (≈ 0.0481 µM); against E. coli (strain 455/7), 0.5 µg/mL (≈ 1.2 µM); against E. coli (strain Neumann), 0.02 µg/mL (≈ 0.0481 µM); in the test with Pseudomonas aeruginasa it was 1 µg/mL (≈ 2.41 µM).

Regarding `CNC1C=CCC2CN(c3cc4c(cc3F)c(=O)c(C(=O)O)cn4C3CC3)CC21` (centres unmarked) [Example 2], the MIC against Enterocococus faecalis (strain 9790) is 0.06 µg/mL (≈ 0.151 µM); against Enterocococus faecalis (strain 27101), 0.06 µg/mL (≈ 0.151 µM); in the test with Providencia spp., 0.13 µg/mL (≈ 0.327 µM); against Staphyloccus aureus (strain 133), 0.02 µg/mL (≈ 0.0503 µM); in the test on Staphyloccus aureus (strain 1756) it was 0.02 µg/mL (≈ 0.0503 µM); against E. coli (strain 455/7) it was 2 µg/mL (≈ 5.03 µM). In addition, the MIC with E. coli (strain Neumann) was found to be 0.03 µg/mL (≈ 0.0755 µM); against Pseudomonas aeruginasa it was 2 µg/mL (≈ 5.03 µM).

For the compound `CNC1C=CCC2CN(c3c(F)cc4c(=O)c(C(=O)O)cn(C5CC5)c4c3Cl)CC21` (centres unmarked) [Example 3, 8-chloro-1-cyclopropyl-6-fluoro-1,4-dihydro-7-(4-methylamino-1,3,3a,4,7,7a-hexahydro-isoindol-2-yl)-4-oxo-3-quinolinecarboxylic acid], the MIC in the test with Enterocococus faecalis (strain 9790) was determined as 0.02 µg/mL (≈ 0.0463 µM); in the test with Enterocococus faecalis (strain 27101) it was 0.02 µg/mL (≈ 0.0463 µM); with Providencia spp., 0.03 µg/mL (≈ 0.0695 µM); with Morganella morg., 0.03 µg/mL (≈ 0.0695 µM); in the test with Klebsiella sp., 0.03 µg/mL (≈ 0.0695 µM); against Staphyloccus aureus (strain 133), 0.02 µg/mL (≈ 0.0463 µM). Further, the MIC in the test on Staphyloccus aureus (strain 1756) was found to be 0.02 µg/mL (≈ 0.0463 µM); with E. coli (strain 455/7) it was 0.25 µg/mL (≈ 0.579 µM); in the test with E. coli (strain Neumann), 0.02 µg/mL (≈ 0.0463 µM); with Pseudomonas aeruginasa, 0.5 µg/mL (≈ 1.16 µM).

`CNC1C=CCC2CN(c3cc4c(c(C)c3F)c(=O)c(C(=O)O)cn4C3CC3)CC21` (centres unmarked) [Example 4]: the MIC was 0.13 µg/mL (≈ 0.316 µM) in the test on Enterocococus faecalis (strain 9790); 0.13 µg/mL (≈ 0.316 µM) against Enterocococus faecalis (strain 27101); 0.25 µg/mL (≈ 0.608 µM) in the test with Providencia spp.; 0.5 µg/mL (≈ 1.22 µM) against Morganella morg.; 0.25 µg/mL (≈ 0.608 µM) against Klebsiella sp.; 0.03 µg/mL (≈ 0.0729 µM) in the test with Staphyloccus aureus (strain 133). The MIC with Staphyloccus aureus (strain 1756) turned out to be 0.03 µg/mL (≈ 0.0729 µM); against E. coli (strain 455/7), 16 µg/mL (≈ 38.9 µM); in the test with E. coli (strain Neumann), 0.13 µg/mL (≈ 0.316 µM); against Pseudomonas aeruginasa it was 16 µg/mL (≈ 38.9 µM).

With `CNC1C=CC(C)C2CN(c3cc4c(cc3F)c(=O)c(C(=O)O)cn4C3CC3)CC12` (centres unmarked) [Example 5], the MIC is 0.03 µg/mL (≈ 0.0729 µM) against Enterocococus faecalis (strain 9790); 0.03 µg/mL (≈ 0.0729 µM) against Enterocococus faecalis (strain 27101); 0.13 µg/mL (≈ 0.316 µM) in the test on Providencia spp.; 0.06 µg/mL (≈ 0.146 µM) against Morganella morg.; 0.06 µg/mL (≈ 0.146 µM) with Klebsiella sp.; 0.02 µg/mL (≈ 0.0486 µM) against Staphyloccus aureus (strain 133). Further, the MIC against Staphyloccus aureus (strain 1756) was 0.02 µg/mL (≈ 0.0486 µM); against E. coli (strain 455/7), 2 µg/mL (≈ 4.86 µM); against E. coli (strain Neumann), 0.06 µg/mL (≈ 0.146 µM); in the test with Pseudomonas aeruginasa, 2 µg/mL (≈ 4.86 µM).

With `CNC1C=CC(C)C2CN(c3c(F)cc4c(=O)c(C(=O)O)cn(C5CC5)c4c3F)CC12` (centres unmarked) [Example 6], the MIC came out at 0.06 µg/mL (≈ 0.14 µM) in the test with Enterocococus faecalis (strain 9790); 0.06 µg/mL (≈ 0.14 µM) in the test on Enterocococus faecalis (strain 27101); 0.13 µg/mL (≈ 0.303 µM) in the test with Providencia spp.; 0.06 µg/mL (≈ 0.14 µM) in the test with Morganella morg.; 0.06 µg/mL (≈ 0.14 µM) in the test on Klebsiella sp.; 0.02 µg/mL (≈ 0.0466 µM) against Staphyloccus aureus (strain 133). Moreover, the MIC amounted to 0.02 µg/mL (≈ 0.0466 µM) with Staphyloccus aureus (strain 1756), 1 µg/mL (≈ 2.33 µM) with E. coli (strain 455/7), 0.03 µg/mL (≈ 0.0699 µM) against E. coli (strain Neumann) and 2 µg/mL (≈ 4.66 µM) with Pseudomonas aeruginasa.

With `CNC1C=CCC2CN(c3nc4c(cc3F)c(=O)c(C(=O)O)cn4C3CC3)CC21.Cl` (centres unmarked) [Example 10, 1-cyclopropyl-6-fluoro-1,4-dihydro-7-(4-methylamino-1,3,3a,4,7,7a-hexahydroisoindol-2-yl)-4-oxo-1,8-naphthyridine-3-carboxylic acid hydrochloride], the minimum inhibitory concentration (MIC) in the test with Enterocococus faecalis (strain 9790) came to 0.25 µg/mL; against Enterocococus faecalis (strain 27101), 0.25 µg/mL; against Providencia spp. it was 0.25 µg/mL; in the test with Morganella morg. it was 0.25 µg/mL; in the test with Klebsiella sp. it was 0.13 µg/mL; with Staphyloccus aureus (strain 133), 0.06 µg/mL. Besides, the MIC with Staphyloccus aureus (strain 1756) came to 0.06 µg/mL; against E. coli (strain 455/7), 8 µg/mL; in the test on E. coli (strain Neumann) it was 0.06 µg/mL; in the test on Pseudomonas aeruginasa, 4 µg/mL.

In the case of `Nc1cccc2c1CN(c1c(F)cc3c(=O)c(C(=O)O)cn(C4CC4)c3c1F)C2` [Ref, 7-(4-amino-1,3-dihydro-isoindol-2-yl)-1-cyclopropyl-6,8-difluoro-1,4-dihydro-4-oxo-3-quinolinecarboxylic acid, reference compound], the minimum inhibitory concentration (MIC) with Enterocococus faecalis (strain 9790) was 1 µg/mL (≈ 2.52 µM); in the test with Enterocococus faecalis (strain 27101), 0.5 µg/mL (≈ 1.26 µM); against Providencia spp., 1 µg/mL (≈ 2.52 µM); with Morganella morg., 1 µg/mL (≈ 2.52 µM); with Klebsiella sp., 4 µg/mL (≈ 10.1 µM); against Staphyloccus aureus (strain 133), 0.03 µg/mL (≈ 0.0755 µM). In addition, the minimum inhibitory concentration (MIC) in the test with Staphyloccus aureus (strain 1756) worked out at 0.03 µg/mL (≈ 0.0755 µM); in the test on E. coli (strain 455/7), 128 µg/mL (≈ 322 µM); with E. coli (strain Neumann), 0.5 µg/mL (≈ 1.26 µM); against Pseudomonas aeruginasa it was 128 µg/mL (≈ 322 µM).

A word on the MIC: it is the smallest concentration in the dilution series that meets the test's criterion for growth inhibition. Lower therefore signals greater potency.

Source of the values: US5464796A, “7-isoindolinyl-quinolone-carboxylic acid derivatives” (Bayer Aktiengesellschaft, priority 1991, dated 1995).
